Source: patent publication US5486531A, “Hydroxymethylfurazancarboxylic acid derivatives” (Cassella Aktiengesellschaft, priority 1993, dated 1996)
Counter-ions that a name gives are not always drawn.

Tested on: spiral strips of the arteria pulmonalis of the guinea pig
Experiment: relaxing effect on spiral strips of guinea pig arteria pulmonalis, contraction elicited by CaCl2 after depolarization with potassium (modified Godfraind and Kaba / Schuman)
Assay type: cell-based
Conditions: Cavia porcellus, read-out: IC50 (concentration of the test substance which inhibits the contraction by 50%)
Procedure: For this, spiral strips of the arteria pulmonalis of the guinea pig are depolarized,following equilibration in calcium-free Tyrode solution, with 40 mmol/l potassium. Addition of 0.5 mmol/l CaCl2 then elicits a contraction. The relaxing effect of the test substance is determined by adding it cummulatively.

Question: For `O=[N+]([O-])O[C@@H]1CO[C@H]2[C@@H]1OC[C@@H]2O` [Isosorbide 5-mononitrate, isosorbide 5-mononitrate, reference compound], which IC50 is on record?
Answer: > 100 µM

Same assay, conditions: Cavia porcellus; depolarized with 40 mmol/l potassium, contraction by 0.5 mmol/l CaCl2; cumulative addition; average value from 4 to 6 vessel strips; read-out: IC50 (concentration of the test substance which inhibits the contraction by 50%)

Question: For `O=C(NCc1cccnc1)c1c(CO)no[n+]1[O-]` [Example 8, 4-Hydroxymethyl-N-(3-pyridylmethyl)-2-oxyfurazan-3-carboxamide hydrochloride], which IC50 is on record?
Answer: 8 µM

Question: `COCCNC(=O)c1c(CO)no[n+]1[O-]` [Example 18, 4-Hydroxymethyl-N-(2-methoxyethyl)-2-oxyfurazan-3-carboxamide] was tested. Which IC50 did it give?
Answer: 8 µM

Question: Which IC50 does the source give for `NS(=O)(=O)c1ccc(CCNC(=O)c2c(CO)no[n+]2[O-])cc1` [Example 26, 4-Hydroxymethyl-N-[2-(4-sulphamoylphenyl)-ethyl]-2-oxyfurazan-3-carboxamid] here?
Answer: 11 µM

Question: How did the IC50 turn out when `C[C@H](NC(=O)c1c(CO)no[n+]1[O-])c1ccccc1` [Example 23, 4-Hydroxymethyl-N-((S)-1-phenylethyl)-2-oxyfurazan-3-carboxamide] was run?
Answer: 15 µM

Question: For `CNC(=O)c1c(CO)no[n+]1[O-]` [Example 4 I, 4-Hydroxymethyl-N-methyl-2-oxyfurazan-3-carboxamide], which IC50 is on record?
Answer: 7.3 µM

Question: How did the IC50 turn out when `NC(=O)c1c(CO)no[n+]1[O-]` [Compound 3 I, 4-Hydroxymethyl-2-oxyfurazan-3-carboxamide] was run?
Answer: 12 µM

Question: For `CC(C)NC(=O)c1c(CO)no[n+]1[O-]` [Compound 1 I, 4-Hydroxymethyl-N-isopropyl-2-oxyfurazan-3-carboxamide], which IC50 is on record?
Answer: 8 µM

Question: How did the IC50 turn out when `CCOC(=O)[N-]c1cn(N2CCOCC2)n[o+]1` [Molsidomine, molsidomine, reference compound] was run?
Answer: 300 µM

Question: With `C[C@@H](NC(=O)c1c(CO)no[n+]1[O-])c1ccccc1` [Example 24, 4-Hydroxymethyl-N-((R)-1-phenylethyl)-2-oxyfurazan-3-carboxamide] as the molecule, how does the IC50 read?
Answer: 2 µM
